Species on record: Rattus norvegicus
Assay: DrugMatrix - Regimen: Daily Repeat
Type: toxicity, organism-based, Sprague-Dawley
Set-up: regimen Daily Repeat, gender Male, age 6-8 weeks
Conditions: in vivo, po, route oral GAVAGE; for ABSOLUTE BASOPHIL / ABSOLUTE EOSINOPHIL / ABSOLUTE LYMPHOCYTE / ABSOLUTE MONOCYTE / ABSOLUTE SEGMENTED NEUTROPHIL / BASOPHIL / EOSINOPHIL / ERYTHROCYTE COUNT / HEMATOCRIT / HEMOGLOBIN / LEUKOCYTE COUNT / LYMPHOCYTE / MEAN CORPUSCULAR HEMOGLOBIN / MEAN CORPUSCULAR HEMOGLOBIN CONCENTRATION / MEAN CORPUSCULAR VOLUME / MONOCYTE / NEUTROPHIL / NUCLEATED RED BLOOD CELLS / PLATELET COUNT: tissue Blood; for ALANINE AMINOTRANSFERASE / ALBUMIN / ALKALINE PHOSPHATASE / ASPARTATE AMINOTRANSFERASE / BLOOD UREA NITROGEN / CARBON DIOXIDE / CHLORIDE / CHOLESTEROL / CREATINE PHOSPHOKINASE / CREATININE / GLUCOSE / LACTATE DEHYDROGENASE / LIPASE / PHOSPHORUS / POTASSIUM / SODIUM / TOTAL BILIRUBIN / TOTAL PROTEIN / URIC ACID: tissue Plasma
[1] = […], 72 h, dose 1.2 mg/Kg, dose level Low, time 3 day
[2] = […], 120 h, dose 1.2 mg/Kg, dose level Low, time 5 day
[3] = 0 mg/kg, 72 h, dose level Control, time 3 day, vehicle .5 % CMC
[4] = 0 mg/kg, 120 h, dose level Control, time 5 day, vehicle .5 % CMC

## CNC(=C[N+](=O)[O-])NCCSCc1csc(CN(C)C)n1 [NIZATIDINE]
[1]
  ABSOLUTE BASOPHIL: 0 CELLS/uL
  ABSOLUTE EOSINOPHIL: 34 CELLS/uL
  ABSOLUTE LYMPHOCYTE: 10569 CELLS/uL
  ABSOLUTE MONOCYTE: 72 CELLS/uL
  ABSOLUTE SEGMENTED NEUTROPHIL: 2425 CELLS/uL
  BASOPHIL: 0%
  EOSINOPHIL: 0.33%
  ERYTHROCYTE COUNT: 5.9 x10E6/uL
  HEMATOCRIT: 35.07%
  HEMOGLOBIN: 13.63 G/DL
  LEUKOCYTE COUNT: 13.1 x10E3/uL
  LYMPHOCYTE: 80.33%
  MEAN CORPUSCULAR HEMOGLOBIN: 23.13 pg
  MEAN CORPUSCULAR HEMOGLOBIN CONCENTRATION: 38.87 G/DL
  MEAN CORPUSCULAR VOLUME: 59.5 fL
  MONOCYTE: 0.67%
  NEUTROPHIL: 18.67%
  NUCLEATED RED BLOOD CELLS: 0.67 /100WBC
  PLATELET COUNT: 1288.67 x10E3/uL
  ALANINE AMINOTRANSFERASE: 58.33 u/L
  ALBUMIN: 4.07 G/DL
  ALKALINE PHOSPHATASE: 348.67 u/L
  ASPARTATE AMINOTRANSFERASE: 87.67 u/L
  BLOOD UREA NITROGEN: 12.67 mg/dL
  CARBON DIOXIDE: 26 mmol/L
  CHLORIDE: 101 MEQ/L
  CHOLESTEROL: 72.67 mg/dL
  CREATINE PHOSPHOKINASE: 343.33 u/L
  CREATININE: 0.16 mg/dL
  GLUCOSE: 162.67 mg/dL
  LACTATE DEHYDROGENASE: 208 u/L
  LIPASE: 10 u/L
  PHOSPHORUS: 13.27 mg/dL
  POTASSIUM: 7.68 MEQ/L
  SODIUM: 143.37 MEQ/L
  TOTAL BILIRUBIN: 0.2 mg/dL
  TOTAL PROTEIN: 5.6 G/DL
  URIC ACID: 2 mg/dL
[2]
  ABSOLUTE BASOPHIL: 0 CELLS/uL
  ABSOLUTE EOSINOPHIL: 0 CELLS/uL
  ABSOLUTE LYMPHOCYTE: 14620.33 CELLS/uL
  ABSOLUTE MONOCYTE: 0 CELLS/uL
  ABSOLUTE SEGMENTED NEUTROPHIL: 2246.33 CELLS/uL
  BASOPHIL: 0%
  EOSINOPHIL: 0%
  ERYTHROCYTE COUNT: 5.78 x10E6/uL
  HEMATOCRIT: 35.77%
  HEMOGLOBIN: 14.27 G/DL
  LEUKOCYTE COUNT: 16.87 x10E3/uL
  LYMPHOCYTE: 87%
  MEAN CORPUSCULAR HEMOGLOBIN: 24.63 pg
  MEAN CORPUSCULAR HEMOGLOBIN CONCENTRATION: 39.9 G/DL
  MEAN CORPUSCULAR VOLUME: 61.87 fL
  MONOCYTE: 0%
  NEUTROPHIL: 13%
  NUCLEATED RED BLOOD CELLS: 0 /100WBC
  PLATELET COUNT: 1147.67 x10E3/uL
  ALANINE AMINOTRANSFERASE: 54.33 u/L
  ALBUMIN: 4.27 G/DL
  ALKALINE PHOSPHATASE: 454.67 u/L
  ASPARTATE AMINOTRANSFERASE: 86.67 u/L
  BLOOD UREA NITROGEN: 11.67 mg/dL
  CARBON DIOXIDE: 27 mmol/L
  CHLORIDE: 101.33 MEQ/L
  CHOLESTEROL: 63.33 mg/dL
  CREATINE PHOSPHOKINASE: 239.33 u/L
  CREATININE: 0.2 mg/dL
  GLUCOSE: 154 mg/dL
  LACTATE DEHYDROGENASE: 176.67 u/L
  LIPASE: 10 u/L
  PHOSPHORUS: 11.33 mg/dL
  POTASSIUM: 6.56 MEQ/L
  SODIUM: 143.2 MEQ/L
  TOTAL BILIRUBIN: 0.17 mg/dL
  TOTAL PROTEIN: 5.87 G/DL
  URIC ACID: 1.7 mg/dL

## C[C@]12C/C(=C/O)C(=O)C[C@@H]1CC[C@@H]1[C@@H]2CC[C@@]2(C)[C@H]1CC[C@]2(C)O [OXYMETHOLONE]
[3]
  BASOPHIL: 0.68%
  EOSINOPHIL: 0.46%
  ERYTHROCYTE COUNT: 7.15 x10E6/uL
  HEMATOCRIT: 45.44%
  HEMOGLOBIN: 14.1 G/DL
  LEUKOCYTE COUNT: 9.78 x10E3/uL
  LYMPHOCYTE: 84.44%
  MEAN CORPUSCULAR HEMOGLOBIN: 19.72 pg
  MEAN CORPUSCULAR HEMOGLOBIN CONCENTRATION: 31 G/DL
  MEAN CORPUSCULAR VOLUME: 63.66 fL
  MONOCYTE: 2.14%
  NEUTROPHIL: 11.16%
  PLATELET COUNT: 1378.2 x10E3/uL
  ALANINE AMINOTRANSFERASE: 42.33 u/L
  ALBUMIN: 3.8 G/DL
  ALKALINE PHOSPHATASE: 388.17 u/L
  ASPARTATE AMINOTRANSFERASE: 68 u/L
  BLOOD UREA NITROGEN: 16.17 mg/dL
  CHLORIDE: 96.67 MEQ/L
  CHOLESTEROL: 71 mg/dL
  CREATINE PHOSPHOKINASE: 156.17 u/L
  CREATININE: 0.57 mg/dL
  GLUCOSE: 193.67 mg/dL
  PHOSPHORUS: 11.43 mg/dL
  POTASSIUM: 7 MEQ/L
  SODIUM: 140.33 MEQ/L
  TOTAL BILIRUBIN: 0.48 mg/dL
  TOTAL PROTEIN: 6.8 G/DL
[4]
  BASOPHIL: 1.47%
  EOSINOPHIL: 1%
  ERYTHROCYTE COUNT: 7.12 x10E6/uL
  HEMATOCRIT: 45.47%
  HEMOGLOBIN: 14.1 G/DL
  LEUKOCYTE COUNT: 11.38 x10E3/uL
  LYMPHOCYTE: 82.57%
  MEAN CORPUSCULAR HEMOGLOBIN: 19.82 pg
  MEAN CORPUSCULAR HEMOGLOBIN CONCENTRATION: 31.02 G/DL
  MEAN CORPUSCULAR VOLUME: 63.88 fL
  MONOCYTE: 2.2%
  NEUTROPHIL: 11.97%
  PLATELET COUNT: 1267 x10E3/uL
  ALANINE AMINOTRANSFERASE: 38 u/L
  ALBUMIN: 3.72 G/DL
  ALKALINE PHOSPHATASE: 391 u/L
  ASPARTATE AMINOTRANSFERASE: 65.83 u/L
  BLOOD UREA NITROGEN: 14.17 mg/dL
  CHLORIDE: 107.67 MEQ/L
  CHOLESTEROL: 61 mg/dL
  CREATINE PHOSPHOKINASE: 148.33 u/L
  CREATININE: 0.57 mg/dL
  GLUCOSE: 177.17 mg/dL
  PHOSPHORUS: 12.07 mg/dL
  POTASSIUM: 7.2 MEQ/L
  SODIUM: 151.5 MEQ/L
  TOTAL BILIRUBIN: 0.58 mg/dL
  TOTAL PROTEIN: 6.72 G/DL
